According to patent US8841312B2, “Fused pyridine, pyrimidine and triazine compounds as cell cycle inhibitors” (Amgen Inc., priority 2007, dated 2014):

How the values were obtained:
Cdk6/CyclinD3 = Cdk6/CyclinD3 (Homo sapiens (Human), UniProt Q00534); experiment: Cdk6 kinase inhibition assay with recombinant Cdk6/CyclinD3, Rb substrate, [33P]-ATP filter plate; format: biochemical; settings: 25 μM ATP, read-out: Cdk 6 IC50
Protocol: The Cdk4 and Cdk6 inhibitory activity of the compounds is measured with a kinase inhibition assay using recombinant Cdk4/CyclinD1 or Cdk6/CyclinD3 protein complexes. The protein substrate used in the assay is the retinoblastoma protein (Rb). The kinase reactions are carried out in a 96-well filter plate (MSDV N6B50, Millipore). […] The mixture is incubated at room temperature for 1 hour and the proteins precipitated with an equal volume of 20% TCA. The plates are washed with 10% TCA according to the manufacturer's instruction and dried at room temperature. The amount of the phosphorylated Rb is determined with a TopCount (PerkinElmer). The IC50 of a compound is determined by nonlinear regression curve fitting using software program Prism 5 (GraphPad Software).

Cdk4/CyclinD1 = Cdk4/CyclinD1 (Homo sapiens (Human), UniProt P11802); experiment: Cdk4 kinase inhibition assay with recombinant Cdk4/CyclinD1, Rb substrate, [33P]-ATP filter plate; format: biochemical; settings: 25 μM ATP, read-out: Cdk 4 IC50
Procedure, shortened: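 Recombinant Cdk4/CyclinD1 or Cdk6/CyclinD3 phosphorylated Rb protein with [33P]-ATP for 1 h at room temperature. Protein was TCA-precipitated on filter plates and bound radioactivity counted. IC50 by nonlinear regression.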

Sequence of Cdk6/CyclinD3 (Q00534 whole entry): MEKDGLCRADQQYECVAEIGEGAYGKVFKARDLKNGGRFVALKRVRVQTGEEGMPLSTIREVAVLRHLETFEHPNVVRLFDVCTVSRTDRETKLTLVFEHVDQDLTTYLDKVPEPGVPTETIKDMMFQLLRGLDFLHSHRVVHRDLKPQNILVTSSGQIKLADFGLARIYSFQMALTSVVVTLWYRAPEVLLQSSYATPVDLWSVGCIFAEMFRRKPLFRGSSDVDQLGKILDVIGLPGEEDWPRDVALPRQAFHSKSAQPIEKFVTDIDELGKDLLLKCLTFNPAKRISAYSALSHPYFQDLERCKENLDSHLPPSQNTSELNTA
Sequence of Cdk6/CyclinD3 (P30281 whole entry partner): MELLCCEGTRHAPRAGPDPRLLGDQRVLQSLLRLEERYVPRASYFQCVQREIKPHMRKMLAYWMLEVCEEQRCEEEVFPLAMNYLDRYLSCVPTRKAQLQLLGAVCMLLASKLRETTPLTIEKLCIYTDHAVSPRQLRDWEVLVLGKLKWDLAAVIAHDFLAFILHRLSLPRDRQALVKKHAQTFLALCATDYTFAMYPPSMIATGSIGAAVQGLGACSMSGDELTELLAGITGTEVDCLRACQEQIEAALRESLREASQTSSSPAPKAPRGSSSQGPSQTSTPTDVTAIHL
Sequence of Cdk4/CyclinD1 (P11802 whole entry): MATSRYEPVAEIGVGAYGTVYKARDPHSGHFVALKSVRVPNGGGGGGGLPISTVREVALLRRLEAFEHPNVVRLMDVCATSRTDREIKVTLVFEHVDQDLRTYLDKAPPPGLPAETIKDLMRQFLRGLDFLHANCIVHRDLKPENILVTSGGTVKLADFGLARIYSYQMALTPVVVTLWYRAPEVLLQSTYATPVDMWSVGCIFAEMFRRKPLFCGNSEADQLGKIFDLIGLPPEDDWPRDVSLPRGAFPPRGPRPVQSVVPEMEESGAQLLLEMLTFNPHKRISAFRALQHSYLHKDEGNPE
Sequence of Cdk4/CyclinD1 (P24385 whole entry partner): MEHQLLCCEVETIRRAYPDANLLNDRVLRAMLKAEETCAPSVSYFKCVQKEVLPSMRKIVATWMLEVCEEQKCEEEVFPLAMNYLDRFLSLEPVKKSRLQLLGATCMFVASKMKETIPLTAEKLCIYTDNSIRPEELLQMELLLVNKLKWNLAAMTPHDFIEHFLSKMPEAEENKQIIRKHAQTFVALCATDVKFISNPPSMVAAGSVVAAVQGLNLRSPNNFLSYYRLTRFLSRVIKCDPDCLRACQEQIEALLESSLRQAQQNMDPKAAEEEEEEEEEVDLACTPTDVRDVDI

| Compound | IC50 (Cdk6/CyclinD3) | IC50 (Cdk4/CyclinD1) |
| --- | --- | --- |
| C[C@H](O)CNC1CCN(c2ccc(Nc3ncc4c5ccncc5n(C5CCCC5)c4n3)nn2)CC1 [Example 439] | 5.7 nM | 3.7 nM |
| O=C(O)CN1CCN(c2ccc(Nc3ncc4c5ccncc5n(C5CCCC5)c4n3)nn2)CC1 [Example 218, (4-(6-((9-cyclopentyl-9H-pyrido[4′,3′:4,5]pyrrolo[2,3-d]pyrimidin-2-yl)amino)-3-pyridazinyl)-1-piperazinyl)acetic acid] | 3.6 nM | 1.39 nM |
| CCC(CC)n1c2cnccc2c2cnc(Nc3ccc(N4CCC(N(C)C)CC4)nn3)nc21 [Example 163, N-(6-(4-(Dimethylamino)-1-piperidinyl)-3-pyridazinyl)-9-(1-ethylpropyl)-9H-pyrido[4′,3′:4,5]pyrrolo[2,3-d]pyrimidin-2-amine] | 16 nM | 17 nM |
| NC1CCN(c2ccc(Nc3ncc4c5ccccc5n(C5CCCC5)c4n3)nn2)CC1 [Example 308] | 8 nM | 11 nM |
| CN(C)C1CCN(c2ccc(Nc3ncc4c5ccccc5n(C5CCCC5)c4n3)nn2)CC1 [Example 300] | 48 nM | 22 nM |
| O[C@@H]1CCCN(C2CCN(c3ccc(Nc4ncc5c6ccncc6n(C6CCCC6)c5n4)nn3)CC2)C1 [Example 451] | 18 nM | 13 nM |
| OC1CCN(C2CCN(c3ccc(Nc4ncc5c6ccncc6n(C6CCCC6)c5n4)nn3)CC2)CC1 [Example 455] | 9 nM | 7 nM |
| OCCC1CCN(c2ccc(Nc3ncc4c5ccnc(F)c5n(C5CCCC5)c4n3)nc2)CC1 [Example 190, 2-(1-(6-((9-Cyclopentyl-8-fluoro-9H-pyrido[4′,3′:4,5]pyrrolo[2,3-d]pyrimidin-2-yl)amino)-3-pyridinyl)-4-piperidinyl)ethanol] | 7.6 nM | 6.4 nM |
| CN(C)C1CCN(c2ccc(Nc3ncc4c5ccncc5n(C5CCC5)c4n3)nc2)CC1 [Example 341] | 16 nM | 21 nM |
| O=C(O)CNC1CCN(c2ccc(Nc3ncc4c5ccncc5n(C5CCCC5)c4n3)nc2)CC1 [Example 477] | 5.1 nM | 2 nM |
| Oc1ccc2c3cnc(Nc4ccc(N5CCNCC5)cn4)nc3n(C3CCCC3)c2n1 [Example 183, 9-Cyclopentyl-2-((5-(1-piperazinyl)-2-pyridinyl)amino)-9H-pyrido[3′,2′:4,5]pyrrolo[2,3-d]pyrimidin-7-ol] | 104 nM | 142 nM |
| O=S1(=O)CC=C(c2ccc(Nc3ncc4c5ccnc(F)c5n(C5CCCC5)c4n3)nc2)CC1 [Example 271, 9-Cyclopentyl-N-(5-(1,1-dioxido-3,6-dihydro-2H-thiopyran-4-yl)-2-pyridinyl)-8-fluoro-9H-pyrido[4′,3′:4,5]pyrrolo[2,3-d]pyrimidin-2-amine] | 16 nM | 16 nM |
| O[C@H]1CCN(Cc2csc(Nc3ncc4c5ccncc5n(C5CCCC5)c4n3)n2)C1 [Example 165, (3S)-1-((2-((9-Cyclopentyl-9H-pyrido[4′,3′:4,5]pyrrolo[2,3-d]pyrimidin-2-yl)amino)-1,3-thiazol-4-yl)methyl)-3-pyrrolidinol] | 17 nM | 8.5 nM |
| Fc1nccc2c3cnc(Nc4ccc(CN5CCNCC5)cn4)nc3n(C3CCCC3)c12 [Example 213, 9-cyclopentyl-8-fluoro-N-(5-(1-piperazinylmethyl)-2-pyridinyl)-9H-pyrido[4′,3′:4,5]pyrrolo[2,3-d]pyrimidin-2-amine] | 52 nM | 203 nM |
| CC[C@@H](C)n1c2cnccc2c2cnc(Nc3ccc(N4CCNC(C)(C)C4)cn3)nc21 [Example 342] | 77 nM | 87 nM |
| c1cc2c3cnc(Nc4ccc(NC5CCNCC5)cn4)nc3n(C3CCCC3)c2cn1 [Example 69] | 31 nM | 17 nM |
| O[C@@H]1CCN(c2ccc(Nc3ncc4c5ccncc5n(C5CCCC5)c4n3)nn2)C1 [Example 18, (R)-9-cyclopentyl-N-(6-(3-hydroxypyrrolidin-1-yl)-3-pyridazinyl)-9H-pyrido[4′,3′:4,5]-pyrrolo[2,3d]pyrimidin-2-amine] | 1.5 nM | 1.6 nM |
| O[C@H]1CCN(Cc2csc(Nc3ncc4c5ccnc(F)c5n(C5CCCC5)c4n3)n2)C1 [Example 181, (3S)-1-((2-((9-Cyclopentyl-8-fluoro-9H-pyrido[4′,3′:4,5]pyrrolo[2,3-d]pyrimidin-2-yl)amino)-1,3-thiazol-4-yl)methyl)-3-pyrrolidinol] | 26 nM | 15 nM |
| CC[C@@H](C)n1c2cnccc2c2cnc(Nc3ccc(N4CCNCC4)cn3)nc21 [Example 320] | 11 nM | 3.6 nM |
| CCN(CCO)C1CCN(c2ccc(Nc3ncc4c5ccncc5n(C5CCCC5)c4n3)nc2)CC1 [Example 473] | 28 nM | 9.7 nM |

| Compound | IC50 (Cdk6/CyclinD3) | IC50 (Cdk4/CyclinD1) |
| --- | --- | --- |
| CCOC(=O)CN1CCN(Cc2ccc(Nc3ncc4c5ccncc5n(C5CCCC5)c4n3)nc2)CC1 [Example 219, Ethyl (4-((6-((9-cyclopentyl-9H-pyrido[4′,3′:4,5]pyrrolo[2,3-d]pyrimidin-2-yl)amino)-3-pyridinyl)methyl)-1-piperazinyl)acetate] | 11 nM | 5.3 nM |
| CN(C)C1CCN(C(=O)c2ccc(Nc3ncc4c5ccncc5n(C5CCCC5)c4n3)nc2)CC1 [Example 230, 9-Cyclopentyl-N-(5-((4-(dimethylamino)-1-piperidinyl)carbonyl)-2-pyridinyl)-9H-pyrido[4′,3′:4,5]pyrrolo[2,3-d]pyrimidin-2-amine] | 16 nM | 16 nM |
| CC[C@@H](C)n1c2cnccc2c2cnc(Nc3ccc(N4CCN[C@@H](C)C4)nn3)nc21 [Example 317] | 21 nM | 12 nM |
| Oc1cc2c3cnc(Nc4ccc(N5CCNCC5)cn4)nc3n(C3CCCC3)c2cn1 [Example 43, 9-Cyclopentyl-2-(5-piperazin-1-yl-pyridin-2-ylamino)-9H-pyrido[4′,3′:4,5]pyrrolo[2,3-d]pyrimidin-6-ol] | 218 nM | 136 nM |
| O[C@H]1CCN(C2CCN(c3ccc(Nc4ncc5c6ccncc6n(C6CCCC6)c5n4)nn3)CC2)C1 [Example 450] | 16 nM | 10 nM |
| C[C@@H](O)CNC1CCN(c2ccc(Nc3ncc4c5ccncc5n(C5CCCC5)c4n3)nn2)CC1 [Example 441] | 3.8 nM | 1.7 nM |
| c1cc2c3cnc(Nc4ccc(N5CCNCC5)nn4)nc3n(C3CCCC3)c2cn1 [Example 6, 9-cyclopentyl-N-(6-(1-piperazinyl)-3-pyridazinyl)-9H-pyrido[4′,3′:4,5]-pyrrolo[2,3d]pyrimidin-2-amine] | 6.6 nM | 1.5 nM |
| CN(C)C1CCN(c2ccc(Nc3ncc4c5ccncc5n([C@H]5CCC[C@H]5O)c4n3)nn2)CC1 [Example 355] | 275 nM | 177 nM |
| O=C1CNCCN1Cc1ccc(Nc2ncc3c4ccncc4n(C4CCCC4)c3n2)nc1 [Example 226, 1-((6-((9-cyclopentyl-9H-pyrido[4′,3′:4,5]pyrrolo[2,3-d]pyrimidin-2-yl)amino)-3-pyridinyl)methyl)-2-piperazinone] | 2.7 nM | 3.2 nM |
| c1ccc2c(c1)c1cnc(Nc3ccc(N4CCNCC4)cn3)nc1n2C1CCCCCC1 [Example 39, (9-Cycloheptyl-9H-pyrimido[4,5-b]indol-2-yl)-(5-piperazin-1-yl-pyridin-2-yl)-amine] | 3.1 nM | 2.1 nM |
| O=c1[nH]ccc2c3cnc(Nc4ccc(N5CCNCC5)cn4)nc3n(C3CCCC3)c12 [Example 53, 9-Cyclopentyl-2-((5-(1-piperazinyl)-2-pyridinyl)amino)-7,9-dihydro-8H-pyrido[4′,3′:4,5]-pyrrolo[2,3-d]pyrimidin-8-one] | 11 nM | 4.7 nM |
| c1ccc2c(c1)c1cnc(Nc3ccc(N4CCNCC4)nn3)nc1n2C1CCCC1 [Example 307] | 8.8 nM | 11 nM |
| OCCNc1ccc(Nc2ncc3c4ccncc4n(C4CCCC4)c3n2)nn1 [Example 292] | 16.1 nM | 4.9 nM |
| CC[C@@H](C)n1c2cnccc2c2cnc(Nc3ccc(N4CC[C@@H](O)C4)cn3)nc21 [Example 322] | 50 nM | 15 nM |
| O[C@@H]1CCN(c2ccc(Nc3ncc4c5ccccc5n(C5CCCC5)c4n3)nc2)C1 [Example 304] | 27 nM | 46 nM |
| c1cc2c3cnc(Nc4ccc(N5CCNCC5)cn4)nc3n(CC3CCCCC3)c2cn1 [Example 32, (9-Cyclohexylmethyl-9H-pyrido[4′,3′:4,5]pyrrolo[2,3-d]pyrimidin-2-yl)-(5-piperazin-1-yl-pyridin-2-yl)-amine] | 30.4 nM | 13 nM |
| FCCNC1CCN(c2ccc(Nc3ncc4c5ccncc5n(C5CCCC5)c4n3)nc2)CC1 [Example 467] | 21 nM | 7.2 nM |
| Cc1nccc2c3cnc(Nc4ccc(N5CCNCC5)cn4)nc3n(C3CCCC3)c12 [Example 54, 9-cyclopentyl-8-methyl-N-(5-(1-piperazinyl)-2-pyridinyl)-9H-pyrido[4′,3′:4,5]pyrrolo[2,3-d]pyrimidin-2-amine] | 47 nM | 20 nM |
| CC1(C)CCC(n2c3cnccc3c3cnc(Nc4ccc(N5CCNCC5)cn4)nc32)CC1 [Example 204, 9-(4,4-dimethylcyclohexyl)-N-(5-(1-piperazinyl)-2-pyridinyl)-9H-pyrido[4′,3′:4,5]pyrrolo[2,3-d]pyrimidin-2-amine] | 1.1 nM | 3.5 nM |
